Reference: US20260042764A1, “COMPOSITIONS AND METHODS FOR INHIBITION OF KRAS” (TheRas, Inc., priority 2022, published 2026)

Columns and labels:
[1] = target: T1, Avi-KRAS WT (1-169) GppNHp/RAF1 RBD-3xFLAG (52-151) (Homo sapiens, UniProt P01116); assay: Raf1-KRAS WT-GppNHP disruption HTRF assay (Biological Example 1); type: binding
T1 construct: Avi-KRAS WT (1-169)
Procedure, shortened: (§1)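 Read-out is HTRF signal of the KRAS–RAF1 RBD complex, reported as percentage of activity relative to DMSO (100%). Protein mix and detection reagents each incubated 1 h at room temperature with 700 rpm shaking. Buffer: 50 mM Tris pH 7.5, 100 mM NaCl, 5 mM MgCl2, 0.1% BSA, 0.01% Tween, 10% DMSO.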

[2] = target: T2, Avi-KRAS G12R (1-169) GppNHp/RAF1 RBD-3xFLAG (52-151) (Homo sapiens, UniProt P01116, G12R); assay: Raf1-KRAS G12R-GppNHP disruption HTRF assay (Biological Example 1); type: binding
T2 construct: Avi-KRAS G12R (1-169)
T2 sequence (P01116 1-169 isoform P01116-2 G12R): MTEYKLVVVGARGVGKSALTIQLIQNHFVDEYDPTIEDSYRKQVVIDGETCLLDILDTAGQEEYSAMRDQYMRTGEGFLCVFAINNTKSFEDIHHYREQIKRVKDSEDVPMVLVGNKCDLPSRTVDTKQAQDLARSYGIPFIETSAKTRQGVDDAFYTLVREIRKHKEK
Procedure, shortened: as §1

[3] = target: T3, Avi-KRAS G12D (1-169) GppNHp/RAF1 RBD-3xFLAG (52-151) (Homo sapiens, UniProt P01116, G12D); assay: Raf1-KRAS G12D-GppNHP disruption HTRF assay (Biological Example 1); type: binding
T3 construct: Avi-KRAS G12D (1-169)
T3 sequence (P01116 1-169 isoform P01116-2 G12D): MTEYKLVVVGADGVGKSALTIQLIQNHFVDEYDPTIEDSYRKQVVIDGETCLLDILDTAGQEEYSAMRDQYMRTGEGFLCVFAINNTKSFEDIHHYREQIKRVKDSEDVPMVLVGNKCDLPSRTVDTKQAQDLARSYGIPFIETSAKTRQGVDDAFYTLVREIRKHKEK
Procedure, shortened: as §1

SW620 cells (KRAS G12V) = assay: Cell-based pERK HTRF assay in SW620 cell (Biological Example 4); conditions: Homo sapiens, SW-620, SW620 (KRAS G12V) cells, pERK HTRF
Procedure, shortened: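 SW620 (KRAS G12V) cells seeded at 3×10^4/well in RPMI, 10% FBS, then treated next day for 4 h with a 9-point half-log series from 1 μM top (0.25% DMSO). Lysates analyzed for pERK by HTRF (Eu cryptate/d2 antibodies, 4–24 h at room temperature), excitation 320 nm, emission 615 nm.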

GP2d cells (KRAS G12D) = assay: Cell-based pERK HTRF assay in GP2d cell (Biological Example 2); conditions: GP2d, GP2d (KRAS G12D) cells, pERK HTRF
Procedure, shortened: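 GP2d (KRAS G12D) cells were plated in DMEM/10% FBS and treated the next day for 60 min with compounds. Dosing used 9-point half-log series starting at 1 μM or 100 nM in 0.25% DMSO. Lysates were read by HTRF pERK (d2/Eu cryptate antibodies) after 4–24 h at room temperature, with excitation at 320 nm and emission at 615 nm.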

[4] = target: T4, Avi-KRAS G12V (1-169) GppNHp/RAF1 RBD-3xFLAG (52-151) (Homo sapiens, UniProt P01116, G12V); assay: Raf1-KRAS G12V-GppNHP disruption HTRF assay (Biological Example 1); type: binding
T4 construct: Avi-KRAS G12V (1-169)
T4 sequence (P01116 1-169 isoform P01116-2 G12V): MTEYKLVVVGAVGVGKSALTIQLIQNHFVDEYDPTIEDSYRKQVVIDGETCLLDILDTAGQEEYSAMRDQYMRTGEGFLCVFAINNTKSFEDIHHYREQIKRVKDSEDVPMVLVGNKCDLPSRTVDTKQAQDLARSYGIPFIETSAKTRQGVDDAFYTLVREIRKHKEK
Procedure, shortened: as §1

[5] = KRAS WT, GppNHp-loaded, class symbols
[6] = KRAS G12R, GppNHp-loaded, class symbols
[7] = KRAS G12D, GppNHp-loaded, class symbols
[8] = KRAS G12V, GppNHp-loaded, class symbols
[9] = KRAS WT, GppNHp-loaded, Table 11
[10] = KRAS G12R, GppNHp-loaded, Table 11
[11] = KRAS G12D, GppNHp-loaded, Table 11
[12] = KRAS G12V, GppNHp-loaded, Table 11

T1 sequence (P01116 1-169 isoform P01116-2): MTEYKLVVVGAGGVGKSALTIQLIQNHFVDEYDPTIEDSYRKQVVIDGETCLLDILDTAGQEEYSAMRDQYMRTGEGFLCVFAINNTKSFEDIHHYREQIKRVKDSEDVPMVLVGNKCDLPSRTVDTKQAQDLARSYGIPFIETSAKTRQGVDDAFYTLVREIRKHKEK

Row | IC50 [1, 5] | IC50 [2, 6] | IC50 [3, 7] | IC50 (SW620 cells (KRAS G12V); class symbols) | IC50 (GP2d cells (KRAS G12D); class symbols) | IC50 [4, 8] | IC50 [1, 9] | IC50 [2, 10] | IC50 [3, 11] | IC50 (SW620 cells (KRAS G12V)) | IC50 (GP2d cells (KRAS G12D)) | IC50 [4, 12] | IC50 ([1]; KRAS WT-GppNHp/RAF1 RBD HTRF) | IC50 ([2]; KRAS G12R-GppNHp/RAF1 RBD HTRF) | IC50 ([3]; KRAS G12D-GppNHp/RAF1 RBD HTRF) | IC50 ([4]; KRAS G12V-GppNHp/RAF1 RBD HTRF) | SMILES
1 | < 100 nM | < 100 nM | < 100 nM | < 100 nM | < 100 nM | < 100 nM | – | – | – | – | – | – | – | – | – | – | CCN(c1nc(OC[C@@]23CCCN2C[C@H](F)C3)nc2c(F)c(-c3ccc(F)c4sc(N)c(C#N)c34)c(C(F)(F)F)cc12)[C@H]1C[C@H]2CCOC(=O)N2C1 (atropisomer, axis not shown) [Compound 664]
2 | < 100 nM | < 100 nM | < 100 nM | < 100 nM | < 100 nM | < 100 nM | – | – | – | – | – | – | – | – | – | – | CCN(c1nc(OC[C@@]23CCCN2C[C@H](F)C3)nc2c(F)c(-c3ccc(F)c4sc(N)c(C#N)c34)c(C(F)(F)F)cc12)[C@H]1CCN(C(=O)[C@@H]2CCCCO2)C1 (atropisomer, axis not shown) [Compound 769]
3 | – | – | – | – | – | – | 100 to 1000 nM | 100 to 1000 nM | 100 to 1000 nM | < 100 nM | < 100 nM | 100 to 1000 nM | – | – | – | – | C[C@H]1CCN1c1nc(OC[C@@]23CCCN2C[C@H](F)C3)nc2c(F)c(-c3ccc(F)c4sc(N)c(C#N)c34)c(C(F)(F)F)cc12 [Compound 235]
4 | – | – | – | – | – | – | – | – | – | < 100 nM | < 100 nM | – | < 100 nM | < 100 nM | < 100 nM | < 100 nM | CCN(c1nc(OC[C@@]23CCCN2C[C@H](F)C3)nc2c(F)c(-c3ccc(F)c4sc(N)c(C#N)c34)c(C(F)(F)F)cc12)[C@H]1CCN(C(=O)CC#N)C1 (atropisomer, axis not shown) [Compound 546]
5 | – | – | – | – | – | – | 100 to 1000 nM | 100 to 1000 nM | 100 to 1000 nM | < 100 nM | < 100 nM | 100 to 1000 nM | – | – | – | – | CC(=O)N1C[C@@H](F)[C@@H](N(C)c2nc(OC[C@@]34CCCN3C[C@H](F)C4)nc3c(F)c(-c4ccc(F)c5sc(N)c(C#N)c45)c(C(F)(F)F)cc23)C1 [Compound 237]
6 | < 100 nM | < 100 nM | < 100 nM | < 100 nM | < 100 nM | < 100 nM | – | – | – | – | – | – | – | – | – | – | CCN(c1nc(OC[C@@]23CCCN2C[C@H](F)C3)nc2c(F)c(-c3ccc(F)c4sc(N)c(C#N)c34)c(C(F)(F)F)cc12)[C@H]1CCN(C(=O)[C@H]2CCCCO2)C1 (atropisomer, axis not shown) [Compound 770]
7 | – | – | – | – | – | – | – | – | – | < 100 nM | < 100 nM | – | < 100 nM | < 100 nM | < 100 nM | < 100 nM | CCN(c1nc(OC[C@@]23CCCN2C[C@H](F)C3)nc2c(F)c(-c3ccc(F)c4sc(N)c(C#N)c34)c(C(F)(F)F)cc12)[C@H]1CCN(C(=O)C2CC2(F)F)C1 (stereo partly drawn) [Compound 548]
8 | 1000 to 10000 nM | 1000 to 10000 nM | 1000 to 10000 nM | 100 to 1000 nM | 100 to 1000 nM | 1000 to 10000 nM | – | – | – | – | – | – | – | – | – | – | CN(C)C(=O)N1CC[C@H]2[C@@H]1CN2c1nc(OC[C@@]23CCCN2C[C@H](F)C3)nc2c(F)c(-c3ccc(F)c4sc(N)c(C#N)c34)c(C(F)(F)F)cc12 (atropisomer, axis not shown) [Compound 728]
9 | – | – | – | – | – | – | – | – | – | < 100 nM | < 100 nM | – | 100 to 1000 nM | 100 to 1000 nM | 100 to 1000 nM | 100 to 1000 nM | N#Cc1c(N)sc2c(F)ccc(-c3c(C(F)(F)F)cc4c(N5CCN6C(=O)CCC6C5)nc(OCC56CCCN5CC(F)C6)nc4c3F)c12 (stereo not drawn) [Compound 412]
10 | 100 to 1000 nM | 100 to 1000 nM | < 100 nM | < 100 nM | < 100 nM | 100 to 1000 nM | – | – | – | – | – | – | – | – | – | – | N#Cc1c(N)sc2c(F)ccc(-c3c(C(F)(F)F)cc4c(N(C5CC5)[C@H]5CCN(C(=O)[C@@H]6CC6(F)F)C5)nc(OC[C@@]56CCCN5C[C@H](F)C6)nc4c3F)c12 (atropisomer, axis not shown) [Compound 779]
11 | < 100 nM | < 100 nM | < 100 nM | < 100 nM | < 100 nM | < 100 nM | – | – | – | – | – | – | – | – | – | – | CCN(c1nc(OC[C@@]23CCCN2C[C@H](F)C3)nc2c(F)c(-c3ccc(F)c4sc(N)c(C#N)c34)c(C(F)(F)F)cc12)[C@H]1CCN(C(=O)OCC2CN(C(C)=O)C2)C1 (atropisomer, axis not shown) [Compound 640]
